Laboratory results as given in publication PMC10709440, “High-throughput ligand profile characterization in novel cell lines expressing seven heterologous insect olfactory receptors for the detection of volatile plant biomarkers” (Scientific Reports, 2023).
Where two headings read alike, the source gives them in different places.

Key:
Drosophila OR49b = target: T1, Drosophila OR49b (Drosophila melanogaster, UniProt Q9V6H2); test: cell-based; conditions: for activation at 1 µM / activation at 10 µM / activation at 100 µM: HEK293; for Average response: OR49b cell line, mean of biological replicates
T1 construct: expressed in transfected cells
T1 sequence (Q9V6H2 1-375): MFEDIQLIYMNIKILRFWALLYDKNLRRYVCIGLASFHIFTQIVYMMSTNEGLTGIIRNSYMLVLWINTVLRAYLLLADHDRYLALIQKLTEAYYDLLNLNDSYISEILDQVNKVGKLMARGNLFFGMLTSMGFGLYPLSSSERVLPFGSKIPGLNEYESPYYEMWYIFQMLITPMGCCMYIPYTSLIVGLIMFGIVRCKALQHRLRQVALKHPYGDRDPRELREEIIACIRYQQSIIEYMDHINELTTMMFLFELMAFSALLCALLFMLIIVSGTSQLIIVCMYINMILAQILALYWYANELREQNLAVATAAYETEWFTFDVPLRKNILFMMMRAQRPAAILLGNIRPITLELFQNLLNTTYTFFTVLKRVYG
T1 sequence (Q9VNB5 1-486 partner): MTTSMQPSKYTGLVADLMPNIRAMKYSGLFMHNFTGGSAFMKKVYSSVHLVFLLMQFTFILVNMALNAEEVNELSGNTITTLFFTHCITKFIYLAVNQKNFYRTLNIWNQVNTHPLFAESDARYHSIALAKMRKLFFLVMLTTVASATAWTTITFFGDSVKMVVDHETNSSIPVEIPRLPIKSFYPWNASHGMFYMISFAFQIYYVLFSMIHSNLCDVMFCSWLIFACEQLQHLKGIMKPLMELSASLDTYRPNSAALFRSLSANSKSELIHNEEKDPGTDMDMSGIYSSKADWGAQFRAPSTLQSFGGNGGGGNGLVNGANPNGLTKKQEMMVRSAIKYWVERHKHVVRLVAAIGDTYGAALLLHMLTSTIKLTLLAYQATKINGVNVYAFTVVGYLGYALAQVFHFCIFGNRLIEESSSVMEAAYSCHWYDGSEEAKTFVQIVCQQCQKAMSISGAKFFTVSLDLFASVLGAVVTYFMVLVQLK
Method: (§1) These VUAA1 normalized ∆F values were used to compare the different receptors and ligands.
(§2) The concentration-dependent effect of the reference ligands on their cognate cell lines was examined in more detail. Twelve different ligand concentrations were measured on each cell line in an overall 0.01 μM to 100 μM concentration range with 5 repetitions with three technical replicates each time.
(§3) Twelve thousand to 18,000 cells were plated into each well of a black wall, transparent bottom 384-well microplate (Greiner) 48 h or 72 h before the measurements and were simultaneously treated with 1 μg/mL doxycycline. […] The plate has 24 columns, thus we could record responses in up to eight different cell lines in each plate. On the day of the experiment, the growth medium was replaced with 20 µL assay buffer/well (140 mM NaCl, 5 mM KCl, 2 mM CaCl2, 1 mM MgCl2, 5 mM HEPES-Na, 20 mM glucose, pH 7.3, 340 mOsm). […] Baseline fluorescence (F0) was recorded for 5 s, after which 7 µL VOC buffer (140 mM NaCl, 5 mM KCl, 2 mM CaCl2, 1 mM MgCl2, 5 mM HEPES-Na, 31 mM glucose, 0.1% DMSO, pH 7.3, 340 mOsm) was injected into each well in one row and the fluorescence response was recorded for an additional 30 s, at a rate of one read/sec. VOC solutions (VOC buffer with 4× concentration of the final measured VOC concentration, 9 µL/well was injected) were measured on the same wells in a second round with the same protocol. Each individual concentration of a specific VOC sample was recorded in three wells for the same cell line on the same microplate. The raw data were exported in xls file format, F0 and FMAX values, and the fluorescence intensity changes (∆F) were calculated in Excel (Microsoft) (Supplementary file Data summary.xlsx) using the following equation: ΔF=FMAX-F0/F0 (see also Fig. 1C). On each plate, we recorded the response of each cell line to 50 µM VUAA1. The average of these ∆F values of each cell line were used to calculate the VUAA1-normalized values for the rest of the plate, by dividing VOC response ∆F values by the average VUAA1 response ∆F value of the corresponding OR cell line. Each VOC-OR combination was measured three times as technical replicates. […] The average of these replicates were used as one ∆F and VUAA1-normalized ∆F in the following analysis.
(§4) In the next rows we tested the reference VOCs (or other VOCs known to activate the corresponding cell lines), in order to test if all cell lines are responsive. The remaining rows were used to test VOCs with unknown effect.
(§5) The recorded FMAX, F0, ∆F, VUAA1-normalized ∆F values, as well as the OR name, the name of the tested sample, and the final concentration for each well were copied into supplementary file Data summary.xlsx, that was used to summarize all the plates recorded. Here, the averages of the measurements were calculated for each receptor-VOC-concentration combination.

Drosophila OR98a = target: T2, Drosophila OR98a (Drosophila melanogaster, UniProt Q9VAZ3); test: Calcium ion fluorescence (GCaMP6) assay, OR98a stable HEK293 cell line; type: cell-based; conditions: for DF norm AVERAGE OR98a: normalized fluorescence change, values below 0.05 threshold given as 0
T2 construct: expressed in transfected cells
T2 sequence (Q9VAZ3 1-397): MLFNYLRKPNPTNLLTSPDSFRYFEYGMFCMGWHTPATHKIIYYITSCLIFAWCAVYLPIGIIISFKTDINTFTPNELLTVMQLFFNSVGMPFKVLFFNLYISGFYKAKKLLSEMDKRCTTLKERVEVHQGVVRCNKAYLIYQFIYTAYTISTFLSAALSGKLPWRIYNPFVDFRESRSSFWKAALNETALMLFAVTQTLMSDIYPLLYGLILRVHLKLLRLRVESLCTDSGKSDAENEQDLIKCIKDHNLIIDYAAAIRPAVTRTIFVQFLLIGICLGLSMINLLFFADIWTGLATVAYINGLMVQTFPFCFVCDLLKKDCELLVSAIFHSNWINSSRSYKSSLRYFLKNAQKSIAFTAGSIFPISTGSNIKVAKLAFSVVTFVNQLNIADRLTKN
T2 sequence (Q9VNB5 1-486 partner): T1 sequence (Q9VNB5 1-486 partner)
Method: as §1, §2, §3, §4, §5

[1] = VOC concentration 1 μM, read-out: OR49b response (VUAA1-normalized response)
[2] = VOC concentration 10 μM, read-out: OR49b response (VUAA1-normalized response)
[3] = VOC concentration 100 μM, read-out: OR49b response (VUAA1-normalized response)
[4] = HEK293, read-out: Average response
[5] = HEK293, read-out: OR98a Average response (VUAA1-normalized)
[6] = HEK293, read-out: OR98a response (VUAA1-normalized response)

Structure (SMILES)	DF norm AVERAGE OR49b (Drosophila OR49b)	activation at 1 µM (Drosophila OR49b; [1])	activation at 10 µM (Drosophila OR49b; [2])	activation at 100 µM (Drosophila OR49b; [3])	Average response (Drosophila OR49b; odorant cc. 1 µM)	Average response (Drosophila OR49b; odorant cc. 10 µM)	Average response (Drosophila OR49b; odorant cc. 100 µM)	activation at 1 µM (Drosophila OR98a; [4])	activation at 10 µM (Drosophila OR98a; [4])	activation at 100 µM (Drosophila OR98a; [4])	activation at 1 µM (Drosophila OR98a; [5])	activation at 10 µM (Drosophila OR98a; [5])	activation at 100 µM (Drosophila OR98a; [5])	activation at 1 µM (Drosophila OR98a; [6])	activation at 10 µM (Drosophila OR98a; [6])	activation at 100 µM (Drosophila OR98a; [6])	DF norm AVERAGE OR98a (Drosophila OR98a; concentration 1)	DF norm AVERAGE OR98a (Drosophila OR98a; concentration 10)	DF norm AVERAGE OR98a (Drosophila OR98a; concentration 100)	also measured
CCCCCC(C)=O [2-heptanone]	0	0%	0%	0%	0.00	0.00	0.02	7%	1.68%	11%	7%	2%	11%	7%	0%	11%	0.06738	0	0.1149	–
CCCCC(C)O (stereo not shown) [2-hexanol]	0	0%	0%	0%	0.00	0.00	0.0161	0%	0%	14%	0%	0%	14%	0%	0%	14%	0	0	0.1401	–
CCCCC(C)=O [2-hexanone]	0	0%	0%	0%	0.00	0.00	0.00	3%	4.36%	3.5%	–	–	–	0%	0%	0%	0	0	0	–
CCCCCCCCC(CO)CCCCCC (stereo not shown) [2-hexyl-1-decanol]	–	0%	0%	8.56%	0.00	0.00	0.0856	0%	14%	2%	–	–	–	0%	14%	0%	0	0.1367	0	–
CC1=CCC2C(C1)C2(C)C (stereo not shown) [3-carene]	0	0%	0%	0%	0.00	0.00	0.00	0%	1.26%	0%	–	–	–	0%	0%	0%	0	0	0	–
CCCC(O)CC (stereo not shown) [3-hexanol]	–	23%	20%	8%	0.23	0.20	0.08	0%	19%	1.15%	–	–	–	0%	19%	0%	0	0.194	0	–
Cc1cccc(O)c1 [3-methylphenol]	–	0%	13%	43%	0.00	0.13	0.43	4.63%	4.61%	6%	–	–	–	0%	0%	6%	0	0	0.05828	activation at 1 µM (Drosophila OR49b; 1 μM VOC, 50 μM VUAA1 = 1, read-out: OR49b Average response (VUAA1-normalized)): 0%; activation at 10 µM (Drosophila OR49b; 10 μM VOC, 50 μM VUAA1 = 1, read-out: OR49b Average response (VUAA1-normalized)): 13%; activation at 100 µM (Drosophila OR49b; 100 μM VOC, 50 μM VUAA1 = 1, read-out: OR49b Average response (VUAA1-normalized)): 43%
CCCCCC(O)CC (stereo not shown) [3-octanol]	–	0%	7%	5.5%	0.00	0.07	0.055	1.89%	3.68%	13%	2%	4%	13%	0%	0%	13%	0	0	0.1274	–
CCCCCC(=O)CC [3-octanone]	–	0%	17%	0%	0.0421	0.17	0.0439	0%	0%	16%	0%	0%	16%	0%	0%	16%	0	0	0.1573	–
